This is an account of results in patent publication US6028197A, “Dibenzo[a,g]quinolizinium derivatives and the salts thereof” (Hanwha Corporation, priority 1998, dated 2000).

In one data set the target is T1, sterol 14-reductase (Rattus norvegicus, UniProt A0ACM8Q6X4).
T1 construct: microsome which was used as an enzyme source of sterol 14-reductase; from tissue; host or cells: liver microsomes of male Sprague-Dawley rats fed lovastatin and cholestyramine
T1 sequence (A0ACM8Q6X4 1-418): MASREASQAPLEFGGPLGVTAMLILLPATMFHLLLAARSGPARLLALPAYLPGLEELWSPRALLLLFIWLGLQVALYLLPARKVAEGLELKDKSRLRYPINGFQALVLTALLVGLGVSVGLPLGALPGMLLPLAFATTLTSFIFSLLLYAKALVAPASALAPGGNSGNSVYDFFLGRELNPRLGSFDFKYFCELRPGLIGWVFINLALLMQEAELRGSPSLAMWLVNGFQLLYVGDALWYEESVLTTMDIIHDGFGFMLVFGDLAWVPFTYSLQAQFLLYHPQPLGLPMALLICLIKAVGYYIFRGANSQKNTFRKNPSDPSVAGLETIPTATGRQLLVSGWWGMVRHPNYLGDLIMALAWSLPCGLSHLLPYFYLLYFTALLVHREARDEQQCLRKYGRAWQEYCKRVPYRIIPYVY
The data set is described as follows: Inhibition of sterol 14-reductase in rat liver microsomes. The class given is biochemical. The note with it: read-out: Enzyme Activity (relative in vitro activity for sterol 14-reductase, IC50 class). Background: Liver microsomes are vesicles of endoplasmic reticulum, rich in cytochrome P450 enzymes.

A further data set deals with HepG2 cells. The data set is described as follows: Cholesterol biosynthesis in cultured human liver cell line ([1,2-14C]acetate incorporation). Format: cell-based. As to conditions: compared with AY9944 (comparative drug). How it is done:
Cultured human liver HepG2 cell line was grown on RPMI (Rosewell park Memorial Institute) 1640 culture medium containing 10% PBS until 60% of monolayer are formed in a 60 mm culture dish. After replacing the medium with 3 ml of a fresh culture medium containing 10% (v/v) LPDS (Fetal calf lipoprotein-deficient serum), the cells were further grown for 48 hours until 90% of cultivation degree appear The culture medium was removed and the cell was then washed with PBS. 2 ml of culture medium containing compound no. 2 (final concentration 100 μM) and AY-9944 (final concentration 1 μM) were added thereto. Then, the medium was cultivated at 37° C. for 1 hour under the condition of 95% air/5% carbonic acid gas. AY-9944 which is an inhibitor for sterol 7-reductase was used as a control drug for assuring the present experimental procedure on the inhibition of cholesterol biosynthesis. Thereafter, 3 μCi of [1,2-^14 C]acetate (72 mCi/mmol) were added thereto. The cultivation was continued for 2 hours so that the isotope is introduced into the cell and used as a precursor for sterol to be synthesized. Then, the culture medium was completely removed and washed with PBS twice and the cells were collected by scratching. 10 μg of cholesterol, 10 μg of lanosterol and [^3 H]cholesterol (30,000 dpm) were added thereto, and saponification reaction was carried out at 70° C. for an hour by adding 7.5% of methanolic KOH solution. Unsaponified sterol was removed by extracting them three times with 3 ml of petroleum ether and dried with nitrogen purging. The dried samples were redissolved in 200 μl of chloroform. An aliquot of the samples was loaded onto Silicagel 60F thin layer plate and then separated using ethyl acetate/hexane 25/75 (v/v) as the developing solvent. The thin layer film was developed by exposure to Amersham Hyperfilm at -70° C. for 7 days. Cholesterol band were confirmed by comparing the band appeared in the film and that appeared in the iodine-stained thin layer. After scratching the cholesterol band, it was quantified by a liquid scintillation counter.

In another data set the test system is Syrian Golden Hamster. The data set is described as follows: In vivo effect on plasma lipids in Syrian Golden Hamster. As to conditions: for HDL cholesterol, change versus normal diet control / LDL cholesterol, change versus normal diet control / Total cholesterol, change versus normal diet control / Triglyceride, change versus normal diet control / HDL cholesterol / LDL cholesterol / Total cholesterol / Triglyceride: 0.3 mg/kg/day oral, 14 days; for total cholesterol, LDL-cholesterol, and triglyceride levels: compared with lovastatin; for HDL cholesterol / LDL cholesterol / Total cholesterol / Triglyceride: normal diet, plasma. How it is done:
In order to investigate the effect of the compound of formula (I) of the invention, the compound was orally administered into male Syrian Golden Hamsters having weights of 90~110 g for two weeks and blood was then taken from each animal. Plasma lipids, i.e., total cholesterol, LDL-cholesterol,HDL-cholesterol and triglycerides were analyzed using an automatic analyzer (Automatic analyzer model Hitachi 7150).
Male Syrian Golden Hamsters weighing 90~110 g distributed from Samyuk Animal Laboratory, Seoul, Korea were bred under the following conditions: they were maintained under reverse light cycle (light cycle: from 6 P.M to 6 A.M; dark cycle: from 6 A.M. to 6 P.M.). The food and water were supplied at 10 A.M. The commercially available standard rodent chows were used. The hamsters were divided into 6 or 7 animals per group. The animals were fasted for 12 hours before administrating the drug. Then, 5,6-dihydrodibenzo[a,g]quinolizinium salts (compound no. 2) dissolved in a 0.25% methyl cellulose solution was administered orally for 14 days at the indicated time per a day. After fasting animals for 24 hours from the last administration, blood was extracted using a cardiac puncture and plasma was then isolated. Plasma lipids, i.e., total cholesterol, LDL-cholesterol, HDL-cholesterol and triglyceride values were analyzed using Automatic Analyzer (Hitachi 7150).

Data set [1] can be described thus: Acute oral toxicity in SD rats. The class given is in vivo. The note with it: rat, in vivo, po, rats. How it is done:
(§1) Meanwhile, the toxicity of the compounds of the present invention was investigated as follows: i.e., the compounds were suspended into propylene glycol and then orally administered into each of 5 male and female SD rats at the age of 5-weeks that were fasted for 12 hours. Under the usual breeding conditions, general symptoms, weight change and lethal case of the above rats were monitored for two weeks. At the dose over 2,000 mg/kg of the compound nos. 2, 3, 9 and 68, general symptoms and the body weight change of the animals were normal and the lethal case was not observed.

The next data set relates to SD rats. The data set is described as follows: Acute oral toxicity in SD rats. Format: in vivo. The note with it: for general symptoms and the body weight change: oral dose over 2,000 mg/kg, monitored for two weeks; for lethal case: rat, in vivo. How it is done:
as §1

SMILES strings stand for the structures.

Take `CCc1c2[n+](cc3c(OCc4c(F)c(F)c(F)c(F)c4F)c(OC)ccc13)CCc1cc(OC)c(OC)cc1-2` [Compound No. 3, 5,6-dihydro-2,3-dimethoxybenzo[a]-13-ethyl-10-methoxy-9-(2,3,4,5,6-pentafluoro)benyloxybenzo[g]quinolizinium chloride]: the IC50 on sterol 14-reductase is under 1000 nM. Besides, the “inhibition of cholesterol biosynthesis in human HepG2 cell line” value in the data set with HepG2 cells was “markedly inhibited”. Also, in the data set on Syrian Golden Hamster, the “HDL cholesterol, change versus normal diet control” value is listed as “+5.4%”; the “LDL cholesterol, change versus normal diet control” value is listed as -49.2%; the “Total cholesterol, change versus normal diet control” value was -23.5%; the “Triglyceride, change versus normal diet control” value is -38.0%. In addition, in the data set with Syrian Golden Hamster, the “total cholesterol, LDL-cholesterol, and triglyceride levels” value is listed as “markedly decreased”; the HDL cholesterol amounted to 63.0 ± 3.0 mg/dL; the LDL cholesterol was determined as 18.8 ± 2 mg/dL; the Total cholesterol amounted to 89.0 ± 7 mg/dL. This compound also returned a Triglyceride with Syrian Golden Hamster of 49.2 ± 6 mg/dL. For the same compound, the median lethal dose (LD50) at 336 h in data set [1] (female) was over 2000 mg/kg. The 50% lethal dose (LD50) at 336 h in data set [1] (male) was over 2000 mg/kg. In the data set with SD rats, the “general symptoms and the body weight change” value is on record as “normal”; the lethal case result was “not observed”.
As to `CCc1c2[n+](cc3c(OCc4ccc(C(F)(F)F)cc4)c(OC)ccc13)CCc1cc(OC)c(OC)cc1-2` [Compound No. 9, 5,6-dihydro-2,3-dimethoxybenzo[a]-13-ethyl-10-methoxy-9-(4-trifluoromethyl)benzyloxybenzo[g]quinolizinium chloride], at sterol 14-reductase, the 50% inhibitory concentration (IC50) is under 1000 nM. Also, the “inhibition of cholesterol biosynthesis in human HepG2 cell line” value in the data set with HepG2 cells is listed as “markedly inhibited”. Besides, in the data set with Syrian Golden Hamster, the “HDL cholesterol, change versus normal diet control” value is -6.0%; the “LDL cholesterol, change versus normal diet control” value is recorded as -45.4%; the “Total cholesterol, change versus normal diet control” value is -37.0%; the “Triglyceride, change versus normal diet control” value was -43.6%. For the same compound, in the data set with Syrian Golden Hamster, the “total cholesterol, LDL-cholesterol, and triglyceride levels” value is “markedly decreased”; the HDL cholesterol came out at 56.2 ± 3.0 mg/dL; the LDL cholesterol came to 20.2 ± 2 mg/dL; the Total cholesterol worked out at 82.4 ± 7 mg/dL. For the same compound, in the data set with Syrian Golden Hamster, the Triglyceride came to 44.8 ± 5.5 mg/dL. For the same compound, in data set [1] (female), the median lethal dose (LD50) at 336 h was over 2000 mg/kg. This compound also registered a 50% lethal dose (LD50) at 336 h in data set [1] (male) of over 2500 mg/kg. Moreover, in the data set on SD rats, the “general symptoms and the body weight change” value is “normal”; the lethal case entry was “not observed”.

As a reminder, the IC50 is the concentration at which inhibition is half-maximal. In general, LD50 refers to the dose expected to kill half of the subjects tested. High values mean a less toxic substance, low ones a more toxic substance.
